Assay [1] concerns POST5 complex (eRF1 & 3 peptide release). Kind of assay: Fluorometer anisotropy measurement of POST5 complex Stop IRES-Lys*. The format is biochemical. The conditions noted are these: 0.1 μM POST5, eRF1 0.1 μM, eRF3 0.2 μM, GTP 2.0 mM, 25° C. The protocol:
Fluorometer measurements of POST5 complex Stop IRES-Lys* included the following treatment methods and components:
POST5 complex was treated with ternary complexes of release factor 1 and 3 and GTP. Lys was labeled with the fluorescent label Atto647. Conditions for the assay were as follows: at 25° C., Buffer condition included 0.1 μM POST 5. Release factor 1 and 3 (eRF1 & 3) POST 5 condition included 0.1 μM POST5; eRF1 at 0.1 μM; eRF3 at 0.2 μM; and GTP at 2 mM. Release factor 1 and 3 (eRF1 & 3) POST 5 and ataluren condition included 0.1 μM POST5; eRF1 at 0.1 μM; eRF3 at 0.2 μM; GTP at 2.0 mM; and Ataluren at […].

The subject of assay [2] is Cy5-hRF1.hRF3.GTP binding to Stop-POST5. As to the kind of experiment: smFRET Cy5-hRF1.hRF3.GTP binding to Stop-POST5. Also on record: species or system human. The conditions noted are these: ataluren 1 mM, FIG. 15C. From the text:
Several important results have been obtained with Cy5-heRF1 which further elucidate the mechanism of termination shown in FIGS. 14A and 14B. Cy5-heRF1 forms a catalytically active RFC with unlabeled heRF3, which, when added to the Stop-POST5 complex, generated a transient FRET signal with FKVRQ-tRNA^Gln(Cy3) bound in the P-site (FIGS. 15A and 15B).

In assay [3] the test system is RNA of Stop-POST5 and 80S.IRES complexes. Kind of assay: LASER-seq mutational profiling of AzAt photoincorporation sites. The format is binding, shrimp (Artemia salina). The conditions noted are these: 300 μM AzAt. How it is done:
RNA-Seq procedures employed closely follow those published (Zinshteyn et al., Nucleic Acids Res, 47, 43-55 (2019); McClary et al., Cell Chem Biol, 24, 605-613 e605 (2017)) except as noted.
Library preparation. RNA-seq libraries were prepared for PAL, PRE, UV, and NUL samples, as defined in Results, of Stop-POST5 and 80S.IRES complexes, using published procedures (Zinshteyn et al., Nucleic Acids Res, 47, 43-55 (2019); McClary et al., Cell Chem Biol, 24, 605-613 e605 (2017)) with the slight modifications that a 12% 0.13 M Tris/45 mM Borate/2.5 mM EDTA (pH 7.6))—Urea PAGE gel replaced a 10% PAGE gel and the selected RNA fragment size was 40-70 bp rather than 60-70 bp. In brief, RNA was extracted and randomly fragmentated by ZnCl2 (Sigma). After separation on the TBE-Urea PAGE gel, RNA fragments, visualized by ethidium bromide staining (used for all RNA gels) were sliced and extracted from the gel by crushing the gel and vigorously shaking (1400 rpm) at 70° C. in 400 μL of water for 15 min. The 3′ ends were dephosphorylated by T4 Polynucleotide Kinase (New England Biolab). The miRNA cloning linker 2 (5′App/[…]/3′ddC (SEQ ID NO: 11), Integrated DNA Technologies) was used as the universal 3′ linker and pre-adenylated using the 5′ DNA Adenylation Kit (New England Biolab) with the provided protocol. Reverse transcription, self-circularization, and PCR amplification were performed essentially the same as previously described (McClary et al., Cell Chem Biol, 24, 605-613 e605 (2017)). Library sequencing was performed on Illumina NextSeq with single-end mode for up to 75 bp read length.
Data processing. Sequencing reads were processed by Cutadapt 2.10 (cutadapt.readthedocs.io/en/stable/) to remove 3′ end linkers and then inputted into Shapemapper2 (Busan et al., RNA, 24(2):143-148 (2018)) to count the mutations and effective sequencing reads, using the STAR Aligner mode (Dobin et al., STAR: ultrafast universal RNA-seq aligner. Bioinformatics. 29:15-21 (2013)). The mutation rate of each nucleotide was calculated by dividing the number of the reads containing the mutations by the total number of reads, outputted as N.
For the PAL sample, the mutation rate fold change was calculated by dividing the mutation rate of the PAL sample by the mutation rate of the PRE sample. The average mutation count was calculated by averaging the number of mutations of the PAL and PRE samples. MA plots (FIG. 3A, FIG. 3B, FIG. 3C and FIG. 3D) were charted by plotting the mutation rate fold change of each nucleotide as a function of the average mutation count of each nucleotide. To determine possibly significant sites of AzAt labeling, the dataset was first screened for points that meet the criteria of a mutation rate fold change ≥1.5 and an average mutation count ≥100. Points meeting these criteria were further screened with Z-factor >0 and p-value <0.05 to determine statistical significance. The Z-factor (z) was calculated using the following equation
For each complex LASER-Seq was carried out on four types of samples, denoted PAL, PRE, UV, and NUL. PAL samples were prepared by photoaffinity labeling of complexes with 300 μM AzAt, a concentration close to saturating for photoincorporation (FIG. 2C). PRE samples were prepared using separately prephotolyzed AzAt that was re-irradiated in the presence of complexes. UV and NUL samples were prepared in the absence of AzAt by either subjecting complexes to uv irradiation (UV) or just analyzing complexes directly (NUL).
The sites of modification arising exclusively via nitrene formation on irradiation of AzAt was first identified by the mutation rate fold change of PAL vs. PRE samples, a procedure which corrects for mutation rates arising from noncovalent binding, or covalent photoincorporation of pre-photolyzed AzAt, or uv-induced mutations not related to AzAt (Table 4). The results obtained for the ≥6,006 nucleotides present in these two complexes are presented in FIG. 3A, FIG. 3B, FIG. 3C and FIG. 3D. […]

With `O=C(O)c1cccc(-c2noc(-c3ccccc3F)n2)c1` [Ataluren], in assay [1], the “effect on peptide release (fluorescence anisotropy change)” value is “inhibited peptide release”. The “effect on rate of Cy5-hRF1.hRF3.GTP binding to Stop-POST5” value in assay [2] was “strongly inhibited”.

Consider `[N-]=[N+]=Nc1ccc(-c2nc(-c3cccc(C(=O)O)c3)no2)cc1` [AzAt], for which, in assay [3], the “mutation rate change, 26S-A1437” value is 1.4 fold; the “mutation rate change, 26S-A1438” value is on record as 1.3 fold; the “mutation rate change, IRES-A142” value came out at 1.4 fold; the “mutation rate change, IRES-G186” value came to 2.0 fold. Moreover, in assay [3], the “mutation rate change, IRES-U177” value was found to be 2.4 fold. Also, the “mutation rate fold-increase PAL vs. PRE, 18S-A1195” value in assay [3] (in both complexes) is given as around 9 fold.
